# Measured values published in PMC9697339, “Pulmonary Safety Profile of Esc Peptides and Esc-Peptide-Loaded Poly(lactide-co-glycolide) Nanoparticles: A Promising Therapeutic Approach for Local Treatment of Lung Infectious Diseases” (Pharmaceutics, 2022).
# Square brackets hold non-standard residues; d marks the D form. Peptide text beside a SMILES is read from it.
# Key:
# [1] = Stability in bronchoalveolar lavage fluid (BAL); assay type: in vitro ADME, mouse
# Protocol: Bronchoalveolar lavage fluid (BAL) was collected from male and female C57BL/6 mice (4–5 months old) according to the procedure described in [31, 32]. Mice were euthanized by means of CO2 narcosis; a small incision at the level of the neck was made and a blunt needle connected to a syringe was inserted into the trachea. Then, lungs were washed with 1 mL of sterile PBS. BAL samples from each mouse were pooled, centrifuged at 1000 rpm (corresponding to […]) for 5 min, and stored at −80 °C. The supernatant was used for stability tests.
# Peptides were dissolved in 400 µL of PBS at a concentration of 300 µM, and added to an equal volume of BAL at a final concentration of 150 µM. At different time points, 150 μL aliquots were withdrawn and added to 500 µL of acetonitrile, and then centrifuged. The supernatants were diluted with 160 μL of 0.1% trifluoroacetic acid (TFA)—water and analyzed by RP-HPLC and mass spectrometry. Liquid chromatography was performed on a Phenomenex Jupiter C18 analytical column (300 Å, 5 μm, 250 × 4.6 mm) in a 30 min gradient, using 0.1% TFA in water as solvent A and acetonitrile as solvent B. Mass spectrometry analysis of diluted samples was performed with a Bruker Daltonic-ultraflex-matrix-assisted laser desorption ionization tandem time-of-flight (MALDI-TOF/TOF) mass spectrometer.
# [2] = test system: lungs of healthy CD1 mice; assay: Lung gene expression (RNA-seq) after intratracheal instillation; assay type: in vivo, mouse; details: i.t. 0.1 mg/kg (20 μM), 24 h, vs PBS-treated animals
# Protocol: All animal experiments were carried out based on a protocol (n. 20087639) approved by the Institutional Animal Care and Use Committee of the University of Pittsburgh according to the National Institutes of Health (NIH) guide for the care and use of laboratory animals. Seven-week-old female wild-type CD1 mice were anesthetized by isoflurane inhalation and instilled intratracheally with 50 µL of peptide solution (0.1 mg/kg, i.e., 20 μM) or PVA-PLGA NP suspension (either bare NPs or NPs loaded with each peptide at 0.1 mg/kg), in PBS. Control mice were given 50 µL of PBS without peptide. After 24 h, mice were euthanized for lung tissue isolation to extract RNA for differential expression analysis (sequencing work was performed by Novogene US Marketing).
# CD1 mice [3] = assay: Mouse toxicity: histopathology after intratracheal instillation; assay type: in vivo
# Protocol: Five-week-old female wild-type CD1 mice were anesthetized by isoflurane inhalation and instilled intratracheally with 1.5 mg/kg (corresponding to 300 μM) of Esc(1-21)-1c in the free or encapsulated form in 50 μL of PBS. Mice instilled with 50 μL of PBS or bare PVA-PLGA NPs were included for control. […] Tissues were fixed in situ with 4% paraformaldehyde for 10 min with open chest cavity. They were then embedded in paraffin, and 5 µm-thick tissue slices were prepared by staining in hematoxylin and eosin and analyzed for pathological severity. In parallel, another group of seven animals was anesthetized by isoflurane inhalation and instilled intratracheally with escalating concentrations up to 7 mg/kg Esc(1-21)-1c in 50 μL of PBS and monitored for survival to determine the MTDs.
# [4] = cited from earlier work
# From the text: This last feature is not shown by any traditional antibiotic and is expected to accelerate the healing of a damaged lung epithelium, especially in CF lungs, where wound-healing processes are highly compromised. Interestin ...
# CD1 mice [5] = assay: Maximum tolerated dosage (MTD) and therapeutic index; assay type: in vivo, mouse
# Protocol: Five-week-old female wild-type CD1 mice were anesthetized by isoflurane inhalation and instilled intratracheally with 1.5 mg/kg (corresponding to 300 μM) of Esc(1-21)-1c in the free or encapsulated form in 50 μL of PBS. Mice instilled with 50 μL of PBS or bare PVA-PLGA NPs were included for control. After 1 day and 14 days, mice were euthanized for tissue isolation and examined for histopathology. Tissues were fixed in situ with 4% paraformaldehyde for 10 min with open chest cavity. They were then embedded in paraffin, and 5 µm-thick tissue slices were prepared by staining in hematoxylin and eosin and analyzed for pathological severity. In parallel, another group of seven animals was anesthetized by isoflurane inhalation and instilled intratracheally with escalating concentrations up to 7 mg/kg Esc(1-21)-1c in 50 μL of PBS and monitored for survival to determine the MTDs.
compound,measurement,setting,value
CC[C@H](C)[C@H](NC(=O)CN)C(=O)N[C@@H](Cc1ccccc1)C(=O)N[C@@H](CO)C(=O)N[C@@H](CCCCN)C(=O)N[C@@H](CC(C)C)C(=O)N[C@@H](C)C(=O)NCC(=O)N[C@@H](CCCCN)C(=O)N[C@@H](CCCCN)C(=O)N[C@H](C(=O)N[C@@H](CCCCN)C(=O)N[C@@H](CC(N)=O)C(=O)N[C@H](CC(C)C)C(=O)N[C@@H](CC(C)C)C(=O)N[C@H](C(=O)N[C@H](CO)C(=O)NCC(=O)N[C@@H](CC(C)C)C(=O)N[C@@H](CCCCN)C(=O)NCC(N)=O)[C@@H](C)CC)[C@@H](C)CC [Esc(1-21)-1c] (H-GIFSKLAGKKIKN[dL]LI[dS]GLKG-NH2),time in BAL at which the peak of the full-length peptide (2185 Da) is still detected,"[1]; mouse (C57BL/6) BAL supernatant mixed 1:1 with peptide in PBS, 300 μM (method: final 150 µM), time points 6 and 24 h, acetonitrile work-up, RP-HPLC C18 and MALDI-TOF/TOF",≥ 24 h
same,time of incubation with BAL after which the full-length peptide (2185 Da) is detectable,"[1]; mouse BAL, high peptide concentration (as for 7 mg/kg), mass spectra (Figure S5)",≥ 48 h
same,"Log2FC, gene Chil1 (up)",[2],34.248
same,"Log2FC, gene Dynlt1f (up)",[2],19.702
same,"Log2FC, gene Eif4a-ps4 (up)",[2],17.867
same,"Log2FC, gene Rpl26 (up)",[2],20.049
same,"Log2FC, gene Snhg11 (down)",[2],−1.949
same,lung histology: inflammatory response or lung tissue damage,"CD1 mice [3]; CD1 mice, i.t. 1.5 mg/kg (~300 µM) peptide free or encapsulated, or corresponding amount of bare NPs, 1 day and 14 days, H&E",did not detect any inflammatory response
same,histology of other organs (liver and kidneys),"CD1 mice [3]; CD1 mice, i.t. 1.5 mg/kg free or encapsulated, 1 day and 14 days, vs control","no visible tissue injury, necrosis, or alteration in cell density"
same,"histology of liver, spleen and kidneys","CD1 mice [3]; mice, i.t. 7 mg/kg, 48 h, vs control",no alteration in the tissue structure
same,lung histopathology: recruitment of inflammatory cells,"CD1 mice [3]; mice, i.t. 7 mg/kg, within 48 h, vs PBS-treated mice",did not reveal significant recruitment of inflammatory cells
same,resistance to enzymatic degradation compared with Esc(1-21),[4],more resistant to enzymatic degradation
same,range of motion,CD1 mice [5]; 1 h and 24 h after i.t. instillation at 7 mg/kg,maintained the same range of motion
same,"maximum tolerated dosage (highest dosage tested, well-tolerated)","CD1 mice [5]; i.t. instillation, increasing concentrations from 1.5 to 7 mg/kg in 50 μL PBS, survival monitored for 14 days",≥ 7 mg/kg
same,survival,"CD1 mice [5]; i.t. up to 7 mg/kg, monitored for 14 days",remained viable for the entire duration of the experiment
